Measurements taken from patent US6620828B2, “Thiazole compounds and pharmaceutical compositions for inhibiting protein kinases and methods for their use” (Agouron Pharmaceuticals, Inc., priority 1999, dated 2003).
Counter-ions that a name gives are not always drawn.

Target: T1, unphosphorylated VEGF-R2Δ50 (FLVK) (Homo sapiens, UniProt P35968, DEL940-989/E990V)
T1 construct: VEGF-R2Δ50 contains residues 806-939 and 990-1171; made in house; host or cells: baculovirus/insect cells
Assay: VEGF-R2 coupled spectrophotometric assay, unphosphorylated enzyme (FLVK)
Type: biochemical
Details: Table 3; for inhibition at 0.05 µM: at 50 nM; for Ki: some entries 'Slow binder'
Text: VEGF-R2 Construct for Assay: This construct determines the ability of a test compound to inhibit tyrosine kinase activity. A construct (VEGF-R2Δ50) of the cytosolic domain of human vascular endothelial growth factor receptor 2 (VEGF-R2) lacking the 50 central residues of the 68 residues of the kinase insert domain was expressed in a baculovirus/insect cell system. Of the 1356 residues of full-length VEGF-R2, VEGF-R2Δ50 contains residues 806-939 and 990-1171, and also one point mutation (E990V) within the kinase insert domain relative to wild-type VEGF-R2. Autophosphorylation of the purified construct was performed by incubation of the enzyme at a concentration of 4 μM in the presence of 3 mM ATP and 40 mM MgCl2 in 100 mM Hepes, pH 7.5, containing 5% glycerol and 5 mM DTT, at 4° C. for 2 h. […] See Parast et al., Biochemistry, 37, 16788-16801 (1998).
The production of ADP from ATP that accompanies phosphoryl transfer was coupled to oxidation of NADH using phosphoenolpyruvate (PEP) and a system having pyruvate kinase (PK) and lactic dehydrogenase (LDH). The oxidation of NADH was monitored by following the decrease of absorbance at 340 nm (e340=6.22 cm^−1 mM^−1) using a Beckman DU 650 spectrophotometer. Assay conditions for phosphorylated VEGF-R2Δ50 (indicated as FLVK-P in the tables below) were the following: 1 mM PEP; 250 μM NADH; 50 units of LDH/mL; 20 units of PK/mL; 5 mM DTT; 5.1 mM poly(E4Y1); 1 mM ATP; and 25 mM MgCl2 in 200 mM Hepes, pH 7.5. Assay conditions for unphosphorylated VEGF-R2Δ50 (indicated as FLVK in the tables) were the following: 1 mM PEP; 250 μM NADH; 50 units of LDH/mL; 20 units of PK/mL; 5 mM DTT; 20 mM poly(E4Y1); 3 mM ATP; and 60 mM MgCl2 and 2 mM MnCl2 in 200 mM Hepes, pH 7.5. Assays were initiated with 5 to 40 nM of enzyme. Ki values were determined by measuring enzyme activity in the presence of varying concentrations of test compounds. The data were analyzed using Enzyme Kinetic and Kaleidagraph software.

T1 sequence (P35968 with tags, fused parts or gaps DEL940-989/E990V limits assumed): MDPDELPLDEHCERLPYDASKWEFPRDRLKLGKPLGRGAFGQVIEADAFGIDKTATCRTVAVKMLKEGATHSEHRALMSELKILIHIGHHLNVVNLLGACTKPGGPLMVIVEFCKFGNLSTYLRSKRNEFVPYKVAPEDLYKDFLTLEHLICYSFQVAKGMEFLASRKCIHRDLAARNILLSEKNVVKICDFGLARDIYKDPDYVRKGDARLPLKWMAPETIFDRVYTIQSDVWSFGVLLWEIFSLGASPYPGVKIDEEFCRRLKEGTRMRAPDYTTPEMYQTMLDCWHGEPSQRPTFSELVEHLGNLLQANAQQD

Row | inhibition at 0.05 µM [%] | Ki [nM] | SMILES | also measured
1 | – | 0.1 | CCn1nc(C)cc1C(=O)Nc1ccc(C)c(-c2noc(-c3sc(Nc4cccc(CO)c4)nc3N)n2)c1 [B(8)] | –
2 | – | 0.13 | CCn1nc(C)cc1C(=O)Nc1ccc(C)c(-c2noc(-c3sc(Nc4ccc(CN5CCCC5)cc4)nc3N)n2)c1 [B(10)] | –
3 | – | 1.7 | Cc1ccc(NC(=O)OC(C)(C)C)cc1-c1noc(-c2sc(Nc3ccccc3)nc2N)n1 [B(23)] | –
4 | – | 29 | COc1ccc(NC(=O)OC(C)(C)C)cc1-c1noc(-c2sc(Nc3cc(OC)c(OC)c(OC)c3)nc2N)n1 [B(25)] | –
5 | – | 2.8 | CCn1nc(C)cc1C(=O)Nc1ccc(C)c(-c2noc(-c3sc(Nc4ccccc4)nc3N)n2)c1 [B(26)] | –
6 | – | 3 | COc1cccc(C(=O)Nc2cc(-c3noc(-c4sc(Nc5ccc(N6CCN(C)CC6)nc5)nc4N)n3)c(C)cc2Cl)c1 [B(28)] | –
7 | 12 | – | COC(=O)c1cccc(-c2noc(-c3sc(Nc4cc(OC)c(OC)c(OC)c4)nc3N)n2)c1 [B(42)] | –
8 | 3 | – | COc1cc(Nc2nc(N)c(-c3nc(-c4cc(N)ccc4F)no3)s2)cc(OC)c1OC [C(4), 3-[3-amino-6-fluorophenyl]-5-[2-[(3,4,5-trimethoxyphenyl)amino]-4-amino-5-thiazolyl]-1,2,4-oxadiazole] | –
9 | – | 2.6 | COc1cc(Nc2nc(N)c(-c3nc(-c4cccc(NC(=O)c5ccc(CN6CCN(C)CC6)cc5)c4)no3)s2)cc(OC)c1OC [D(77)] | –
10 | 5 | – | Cc1cccc(C(=O)Nc2cccc(-c3noc(-c4sc(NS(C)(=O)=O)nc4N)n3)c2)c1 [F(15), N-{3-[5-(4-Amino-2-methanesulfonylamino-thiazol-5-yl)-[1,2,4]oxadiazol-3-yl]-phenyl}-3-methyl-benzamide] | –
11 | – | 0.22 | COc1cccc(C(=O)Nc2cc(-c3noc(-c4sc(NC(=O)NCC5CCCO5)nc4N)n3)c(F)cc2F)c1 (stereo not shown) [O(5), N-[5-(5-{4-Amino-2-[3-(tetrahydro-furan-2-ylmethyl)-ureido]-thiazol-5-yl}-[1,2,4]oxadiazol-3-yl)-2,4-difluoro-phenyl]-3-methoxy-benzamide] | –
12 | – | 0.21 | COc1cccc(C(=O)Nc2cc(-c3noc(-c4sc(NC(=O)NCc5ccccn5)nc4N)n3)c(F)cc2F)c1 [O(8), N-(5-{5-[4-Amino-2-(3-pyridin-2-ylmethyl-ureido)-thiazol-5-yl]-[1,2,4]oxadiazol-3-yl}-2,4-difluoro-phenyl)-3-methoxy-benzamide] | –

The next lines start with the molecule.

Row | SMILES | inhibition at 0.05 µM [%] | Ki [nM] | also measured
13 | COc1cccc(C(=O)Nc2ccc(C)c(-c3noc(-c4sc(Nc5ccc(N(C)C)cc5)nc4N)n3)c2)c1 [B(7), 3-[3-[(3-methoxybenzoyl)amino]-6-methyl-phenyl]-5-[2-[4-(N,N-dimethylaminophenyl)amino]-4-amino-5-thiazolyl]-1,2,4-oxadiazole] | 61 | – | –
14 | COc1cccc(C(=O)Nc2cc(-c3noc(-c4sc(NC(C)C)nc4N)n3)c(F)cc2F)c1 [B(19), N-{5-[5-(4-Amino-2-isopropylamino-thiazol-5-yl)-[1,2,4]oxadiazol-3-yl]-2,4-difluoro-phenyl}-3-methoxy-benzamide] | 36 | – | –
15 | COc1cccc(C(=O)Nc2cc(-c3noc(-c4sc(Nc5cccnc5)nc4N)n3)c(F)cc2F)c1 [B(20), N-(5-{5-[4-Amino-2-(pyridin-3-ylamino)-thiazol-5-yl]-[1,2,4]oxadiazol-3-yl}-2,4-difluoro-phenyl)-3-methoxy-benzamide-TFA salt] | – | – | FLVK % inhibition (concentration not given): 80%
16 | Cc1ccc(NC(=O)OC(C)(C)C)cc1-c1noc(-c2sc(Nc3ccc4nc[nH]c4c3)nc2N)n1 [B(24)] | – | 2.1 | –
17 | CCn1nc(C)cc1C(=O)Nc1ccc(C)c(-c2noc(-c3sc(Nc4ccc(N5CCN(C)CC5)nc4)nc3N)n2)c1 [B(27)] | – | 0.3 | –
18 | Cc1ccc(NC(=O)C(O)CC(C)C)cc1-c1noc(-c2sc(Nc3ccc(N4CCN(C)CC4)nc3)nc2N)n1 (stereo not shown) [B(29)] | – | 0.9 | –
19 | C/C=C(/C)C(=O)Nc1ccc(C)c(-c2noc(-c3sc(Nc4ccc(N5CCN(C)CC5)nc4)nc3N)n2)c1 [B(31)] | – | 5.1 | –
20 | COc1cc(F)c(-c2noc(-c3sc(Nc4cc(OC)c(OC)c(OC)c4)nc3N)n2)cc1NC(=O)OC(C)(C)C [B(41)] | 0 | – | –
21 | COc1cc(Nc2nc(N)c(-c3nc(-c4cccc(C(=O)O)c4)no3)s2)cc(OC)c1OC [B(43)] | 11 | – | –
22 | COc1cc(F)c(-c2noc(-c3sc(Nc4cc(OC)c(OC)c(OC)c4)nc3N)n2)cc1N [C(5), 3-[2-fluoro-4-methoxy-5-aminophenyl]-5-[2-[(3,4,5-trimethoxyphenyl)amino]-4-amino-5-thiazolyl]-1,2,4-oxadiazole] | 15 | – | –
23 | COc1cc(Nc2nc(N)c(-c3nc(-c4cccc(NC(=O)c5cccc(C(N)=O)c5)c4)no3)s2)cc(OC)c1OC [D(71)] | – | 4.1 | –
24 | COc1cccc(C(=O)Nc2cc(-c3noc(-c4sc(NC(=O)NCCN5CCOCC5)nc4N)n3)c(F)cc2F)c1 [O(1), N-[5-(5-{4-Amino-2-[3-(2-morpholin-4-yl-ethyl)-ureido]-thiazol-5-yl}-[1,2,4]oxadiazol-3-yl)-2,4-difluoro-phenyl]-3-methoxy-benzamide] | – | 0.28 | –
25 | COc1cccc(C(=O)Nc2cc(-c3noc(-c4sc(NC(=O)NCC(N)=O)nc4N)n3)c(F)cc2F)c1 [O(3), N-(5-{5-[4-Amino-2-(3-carbamoylmethyl-ureido)-thiazol-5-yl]-[1,2,4]oxadiazol-3-yl}-2,4-difluoro-phenyl)-3-methoxy-benzamide] | – | 0.57 | –
26 | COc1cccc(C(=O)Nc2cc(-c3noc(-c4sc(NC(=O)NCCOCCO)nc4N)n3)c(F)cc2F)c1 [O(6), N-{5-[5-(4-Amino-2-{3-[2-(2-hydroxy-ethoxy)-ethyl]-ureido}-thiazol-5-yl)-[1,2,4]oxadiazol-3-yl]-2,4-difluoro-phenyl}-3-methoxy-benzamide] | – | 0.15 | –
27 | COc1cccc(C(=O)Nc2cc(-c3csc(-c4sc(NC(=O)NCc5ccccn5)nc4N)n3)c(F)cc2F)c1 [O(16), N-{5-[4′-Amino-2′-(3-pyridin-2-ylmethyl-ureido)-[2,5′]bithiazolyl-4-yl]-2,4-difluoro-phenyl}-3-methoxy-benzamide] | 11 | – | –
28 | CC[C@@H](CO)NC(=O)Nc1nc(N)c(-c2nc(-c3cc(NC(=O)c4cccc(OC)c4)c(F)cc3F)cs2)s1 [O(22), N-(5-{4′-Amino-2′-[3-((S)-1-hydroxymethyl-propyl)-ureido]-[2,5′]bithiazolyl-4-yl}-2,4-difluoro-phenyl)-3-methoxy-benzamide] | – | 1.5 | –
29 | COc1cccc(C(=O)Nc2cc(-c3csc(-c4sc(NC(=O)NC[C@@H]5CCCO5)nc4N)n3)c(F)cc2F)c1 [O(23), N-[5-(4′-Amino-2′-{3-[(S)-1-(tetrahydro-furan-2-yl)methyl]-ureido}-[2,5′]bithiazolyl-4-yl)-2,4-difluoro-phenyl]-3-methoxy-benzamide] | 29 | – | –
30 | COc1cccc(C(=O)Nc2cc(-c3csc(-c4sc(NC(=O)NC[C@H]5CCCO5)nc4N)n3)c(F)cc2F)c1 [O(24), N-[5-(4′-Amino-2′-{3-[(R)-1-(tetrahydro-furan-2-yl)methyl]-ureido}-[2,5′]bithiazolyl-4-yl)-2,4-difluoro-phenyl]-3-methoxy-benzamide] | 22 | – | –
31 | COc1cccc(C(=O)Nc2cc(-c3csc(-c4sc(NC(=O)NCC5CCCCC5)nc4N)n3)c(F)cc2F)c1 [O(25), N-{5-[4′-Amino-2′-(3-cyclohexylmethyl-ureido)-[2,5′]bithiazolyl-4-yl]-2,4-difluoro-phenyl}-3-methoxy-benzamide] | 28 | – | –
